Columns and labels:
[1] = system: Hepatotoxicity;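 as to HepSE bilirubinemia: bilirubinemia hepatic side effect score drawn from the DILIps training data, a prediction system for drug-induced liver injury; call rule not given here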;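 as to HepSE cholecystitis: Cholecystitis-related hepatic side effect score drawn from the DILIps (drug-induced liver injury prediction) training data set; call rule not given here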;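 as to HepSE cholelithiasis: hepatic side effect score for cholelithiasis, drawn from the DILIps training data for predicting drug-induced liver injury; call rule not given here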;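 as to HepSE cirrhosis: cirrhosis hepatic side effect score taken from the DILIps (drug-induced liver injury prediction) training set; call rule not given here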;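 as to HepSE elevated liver function tests: hepatic side effect score for raised liver function tests, as recorded in the DILIps training set used for predicting drug-induced liver injury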; as to HepSE hepatic failure: call rule not given here;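 as to HepSE hepatomegaly: hepatic side effect score for hepatomegaly, taken from the training set of the DILIps drug-induced liver injury prediction system; call rule not given here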
[2] = system: Hepatotoxicity; remark: listed apart in the source;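 as to HepSE bilirubinemia: bilirubinemia hepatic side effect score drawn from the DILIps training data, a prediction system for drug-induced liver injury; call rule not given here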;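 as to HepSE cholecystitis: Cholecystitis-related hepatic side effect score drawn from the DILIps (drug-induced liver injury prediction) training data set; call rule not given here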;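 as to HepSE cholelithiasis: hepatic side effect score for cholelithiasis, drawn from the DILIps training data for predicting drug-induced liver injury; call rule not given here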;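 as to HepSE cirrhosis: cirrhosis hepatic side effect score taken from the DILIps (drug-induced liver injury prediction) training set; call rule not given here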;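 as to HepSE elevated liver function tests: hepatic side effect score for raised liver function tests, as recorded in the DILIps training set used for predicting drug-induced liver injury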; as to HepSE hepatic failure: call rule not given here
[3] = system: Hepatotoxicity; remark: listed apart in the source;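 as to HepSE bilirubinemia: bilirubinemia hepatic side effect score drawn from the DILIps training data, a prediction system for drug-induced liver injury; call rule not given here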;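 as to HepSE cholecystitis: Cholecystitis-related hepatic side effect score drawn from the DILIps (drug-induced liver injury prediction) training data set; call rule not given here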;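 as to HepSE cholelithiasis: hepatic side effect score for cholelithiasis, drawn from the DILIps training data for predicting drug-induced liver injury; call rule not given here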;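 as to HepSE cirrhosis: cirrhosis hepatic side effect score taken from the DILIps (drug-induced liver injury prediction) training set; call rule not given here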;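 as to HepSE elevated liver function tests: hepatic side effect score for raised liver function tests, as recorded in the DILIps training set used for predicting drug-induced liver injury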; as to HepSE hepatic failure: call rule not given here
[4] = system: Hepatotoxicity; remark: listed apart in the source;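 as to HepSE bilirubinemia: bilirubinemia hepatic side effect score drawn from the DILIps training data, a prediction system for drug-induced liver injury; call rule not given here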;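 as to HepSE cholecystitis: Cholecystitis-related hepatic side effect score drawn from the DILIps (drug-induced liver injury prediction) training data set; call rule not given here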;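 as to HepSE cholelithiasis: hepatic side effect score for cholelithiasis, drawn from the DILIps training data for predicting drug-induced liver injury; call rule not given here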;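 as to HepSE cirrhosis: cirrhosis hepatic side effect score taken from the DILIps (drug-induced liver injury prediction) training set; call rule not given here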;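 as to HepSE elevated liver function tests: hepatic side effect score for raised liver function tests, as recorded in the DILIps training set used for predicting drug-induced liver injury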; as to HepSE hepatic failure: call rule not given here
[5] = system: Hepatotoxicity; remark: listed apart in the source; as to HepSE hepatic failure: call rule not given here
[6] = system: Hepatotoxicity; remark: listed apart in the source; as to HepSE hepatic failure: call rule not given here
[7] = system: Hepatotoxicity; remark: listed apart in the source
[8] = system: Hepatotoxicity; remark: listed apart in the source
[9] = system: Hepatotoxicity; remark: listed apart in the source
[10] = system: Hepatotoxicity; remark: listed apart in the source
[11] = system: Hepatotoxicity; remark: listed apart in the source
[12] = system: Hepatotoxicity; remark: listed apart in the source
[13] = system: Hepatotoxicity; remark: listed apart in the source
[14] = system: Hepatotoxicity; remark: listed apart in the source

Structure (SMILES) | HepSE_bilirubinemia [1] | HepSE_cholecystitis [2] | HepSE_cholelithiasis [3] | HepSE_cirrhosis [4] | HepSE_elevated liver function tests [5] | HepSE_hepatic failure [6] | HepSE_hepatic necrosis [7] | HepSE_hepatitis [8] | HepSE_hepatomegaly [9] | HepSE_jaundice [10] | HepSE_liver disease [11] | HepSE_liver fatty [12] | HepSE_liver function tests abnormal [13] | HepSE_Combined Scores [14]
[H]/N=C(\N/C(=N/[H])NCCCCCCNC(=N)NC(=N)Nc1ccc(Cl)cc1)Nc1ccc(Cl)cc1 [CHLORHEXIDINE] | 0 | 0 | 0 | 0 | 0 | 0 | 0 | 0 | 0 | 0 | 0 | 0 | 0 | 0
CCN(CC)CCOC(=O)c1ccc(N)cc1Cl [CHLOROPROCAINE] | 0 | 0 | 0 | 0 | 0 | 0 | 0 | 0 | 0 | 0 | 0 | 0 | 0 | 0
CCN(CC)CCCC(C)Nc1ccnc2cc(Cl)ccc12 (stereo unspecified) [CHLOROQUINE] | 0 | 0 | 0 | 0 | 0 | 0 | 0 | 0 | 0 | 0 | 0 | 0 | 0 | 0
NS(=O)(=O)c1cc2c(cc1Cl)N=CNS2(=O)=O [CHLOROTHIAZIDE] | 0 | 0 | 0 | 0 | 0 | 0 | 0 | 0 | 0 | 1 | 0 | 0 | 0 | 1
CN(C)CCC(c1ccc(Cl)cc1)c1ccccn1 (stereo unspecified) [CHLORPHENIRAMINE] | 0 | 0 | 0 | 0 | 0 | 0 | 0 | 0 | 0 | 0 | 0 | 0 | 0 | 0
CN(C)CCCN1c2ccccc2Sc2ccc(Cl)cc21 [CHLORPROMAZINE] | 0 | 0 | 0 | 1 | 0 | 0 | 0 | 0 | 0 | 1 | 1 | 0 | 0 | 3
CCCNC(=O)NS(=O)(=O)c1ccc(Cl)cc1 [CHLORPROPAMIDE] | 0 | 0 | 0 | 0 | 0 | 0 | 0 | 0 | 0 | 1 | 0 | 0 | 0 | 1
NS(=O)(=O)c1cc(C2(O)NC(=O)c3ccccc32)ccc1Cl (stereo unspecified) [CHLORTHALIDONE] | 0 | 0 | 0 | 0 | 0 | 0 | 0 | 0 | 0 | 1 | 0 | 0 | 0 | 1
C=C1CC[C@H](O)C/C1=C/C=C1\CCC[C@]2(C)[C@@H]([C@H](C)CCCC(C)C)CC[C@@H]12 [CHOLECALCIFEROL] | 0 | 0 | 0 | 0 | 0 | 0 | 0 | 0 | 0 | 0 | 0 | 0 | 0 | 0
